Test results taken from PMC11243058, “Identification of Novel Isatin Derivative Bearing a Nitrofuran Moiety as Potent Multi-Isoform Aldehyde Dehydrogenase Inhibitor” (Molecules, 2024).
Read-outs that look alike come from different tables or passages of the source.

What was measured:
SKOV-3 = assay: Cell viability assay (MTS), SKOV-3; format: cell-based, human; settings: 48 h, mean ± SD
Method: (§1) Five thousand cells/well were plated in 96-well plates in growth media and left for attachment for 24 h. The cells were then treated with the respective compounds using varying concentrations for 48 h. At the end of the treatment duration, a solution of MTS [3-(4,5-dimethylthiazol-2-yl)-5-(3-carboxymethoxyphenyl)-2-(4-sulfophenyl)-2H-tetrazolium] and an electron coupling reagent, PES (phenazine ethosulfate) (Promega, Madison, WI, USA) was added to the cells. Then, 15 μL of MTS reagent was added to each well, and the absorbance was assessed at 490 nm with a microplate reader (Dynex Technologies, MRX Revelation; Chantilly, VA, USA) after 1 h incubation with MTS. The data were recorded, and the IC50 value was calculated using non-linear curve regression analysis (Graph pad V8.0, CA, USA).

ALDH3A1 = biological target: T1, ALDH3A1 (Homo sapiens, UniProt P30838); assay: ALDH isoform-specific enzyme inhibition assay, ALDH3A1; format: biochemical; settings: Acetaldehyde (Substrate); for inhibition at 0.5 µM: 500 nM
T1 construct: purchased R&D systems
T1 sequence (P30838 1-453): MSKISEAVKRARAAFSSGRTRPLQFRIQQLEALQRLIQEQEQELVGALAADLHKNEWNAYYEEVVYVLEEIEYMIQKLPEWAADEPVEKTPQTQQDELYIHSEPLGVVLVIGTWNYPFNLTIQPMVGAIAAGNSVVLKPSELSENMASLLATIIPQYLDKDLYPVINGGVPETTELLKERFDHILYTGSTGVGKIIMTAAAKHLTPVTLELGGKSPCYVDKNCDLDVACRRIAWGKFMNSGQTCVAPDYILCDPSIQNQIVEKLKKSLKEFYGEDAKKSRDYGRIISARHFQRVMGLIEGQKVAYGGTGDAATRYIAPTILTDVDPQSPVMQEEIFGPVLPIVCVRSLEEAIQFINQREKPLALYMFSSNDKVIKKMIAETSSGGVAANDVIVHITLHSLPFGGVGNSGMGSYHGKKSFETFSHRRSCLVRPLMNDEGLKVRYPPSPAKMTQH
Method: (§2) ALDH1A1, ALDH3A1, and ALDH1A3 enzyme inhibition assays were performed as reported previously. Briefly, 500 ng/100 uL of ALDH1A1, ALDH3A1, and ALDH1A3 were treated with 500 nM concentration of the tested compounds and incubated for 15 min followed by the addition of reaction mixture (substrate + Substrate mixture). […] The absorbance was measured at 450 nm. [Absorbance Control–Absorbance treated/Absorbance Control]100 was used to compute the percentage of inhibition.

HEK-293 = assay: Cell viability assay (MTS), HEK-293; format: cell-based; settings: 48 h, mean ± SD
Method: as §1

[1] = test system: SKOV-3, MiaPaCa-2, HCT-116, HEK-293, and FHC cell lines; assay: Cell viability assay (MTS), statements over the cell line panel; format: cell-based, human; settings: for IC50: read-out: IC50 in cancer cell lines; for IC50 / cytotoxicity against the tested cell lines: range or statement over all tested cell lines
Method: as §1

FHC = assay: Cell viability assay (MTS), FHC; format: cell-based; settings: normal fetal human cells, 48 h, mean ± SD
Method: as §1

ALDH1A1 = biological target: T2, ALDH1A1 (Homo sapiens, UniProt P00352); assay: ALDH isoform-specific enzyme inhibition assay, ALDH1A1; format: biochemical; settings: Acetaldehyde (Substrate); for inhibition at 0.5 µM: 500 nM
T2 construct: purchased R&D systems
T2 sequence (P00352 1-501): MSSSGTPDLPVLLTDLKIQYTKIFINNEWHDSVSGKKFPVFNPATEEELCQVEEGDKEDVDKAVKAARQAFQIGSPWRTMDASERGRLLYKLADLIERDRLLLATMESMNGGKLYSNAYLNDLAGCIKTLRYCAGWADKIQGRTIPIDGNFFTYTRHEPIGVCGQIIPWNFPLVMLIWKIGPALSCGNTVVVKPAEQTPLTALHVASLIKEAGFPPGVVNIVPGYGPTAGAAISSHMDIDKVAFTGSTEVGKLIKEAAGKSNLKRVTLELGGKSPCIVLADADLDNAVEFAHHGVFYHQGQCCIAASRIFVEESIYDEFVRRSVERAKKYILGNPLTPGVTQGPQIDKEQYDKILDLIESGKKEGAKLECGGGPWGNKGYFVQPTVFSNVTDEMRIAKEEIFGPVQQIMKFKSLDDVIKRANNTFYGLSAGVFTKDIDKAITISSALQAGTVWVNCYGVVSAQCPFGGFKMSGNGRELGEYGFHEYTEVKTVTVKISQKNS
Method: as §2

HCT-116 = assay: Cell viability assay (MTS), HCT-116; format: cell-based, human; settings: 48 h, mean ± SD
Method: as §1

MiaPaCa-2 = assay: Cell viability assay (MTS), MiaPaCa-2; format: cell-based, human; settings: 48 h, mean ± SD
Method: as §1

[2] = Homo sapiens, SK-OV-3, ovarian cancer cells
[3] = HEK293, human embryonic kidney cells
[4] = Homo sapiens, HCT-116, colon cancer cells
[5] = Homo sapiens, MIA PaCa-2, pancreatic cancer cells
[6] = Homo sapiens, Pancreatic cancer cell, ovarian, colon, and pancreatic cancer cells, 48 h MTS
[7] = Homo sapiens, Pancreatic cancer cell, 48 h

Compound | IC50 (SKOV-3; ovarian cancer cells) | % Enzyme Inhibition at 500 nM ALDH3A1 (ALDH3A1) | IC50 (HEK-293; human embryonic kidney cells) | IC50 ([1]; ovarian, colon, and pancreatic cancer cells, 48 h MTS) | IC50 (FHC) | % Enzyme Inhibition at 500 nM ALDH1A1 (ALDH1A1) | IC50 (HCT-116; colon cancer cells) | IC50 (MiaPaCa-2; pancreatic cancer cells) | IC50 (SKOV-3; [2]) | inhibition at 0.5 µM (ALDH3A1) | IC50 (HEK-293; [3]) | IC50 (FHC; FHC) | inhibition at 0.5 µM (ALDH1A1) | IC50 (HCT-116; [4]) | melting point | IC50 (MiaPaCa-2; [5]) | IC50 / cytotoxicity against the tested cell lines ([1]; 48 h MTS) | IC50 [1, 6] | IC50 [1, 7]
4-((5-(Trifluoromethyl)-1H-indazol-1-yl)methyl)benzylcarbamimidothioate hydrobromide [Compound 12] | 8.2 ± 2.7 µM | −14.03 ± 0.06% | 4.7 ± 1.1 µM | 4.7 to 33 µM | 3.1 ± 0.8 µM | 10.01 ± 0.01% | 5.5 ± 0.1 µM | 4.7 ± 0.4 µM | – | – | – | – | – | – | – | – | – | – | –
O=C(OCc1ccc(CN2C(=O)C(=O)c3cc(Br)cc(Br)c32)cc1)c1ccco1 [Compound 4, 4-((5,7-Dibromo-2,3-dioxoindolin-1-yl)methyl)benzyl furan-2-carboxylate] | – | – | – | – | – | – | – | – | 7.2 ± 1.3 µM | 22.82 ± 0.05% | 5.3 ± 1.4 µM | 6.7 ± 1.9 µM | 28.26 ± 0.01% | 6.1 ± 1.2 µM | 132 to 134 °C | 7.1 ± 0.8 µM | – | – | –
O=Cc1ccc(CN2C(=O)C(=O)c3cc(Br)cc(Br)c32)cc1 [Compound 5, 4-((5,7-Dibromo-2,3-dioxoindolin-1-yl)methyl)benzaldehyde] | – | – | – | – | – | – | – | – | 8.2 ± 1.1 µM | 39.58 ± 0.05% | 7.5 ± 1.8 µM | 12.9 ± 3.3 µM | 24.82 ± 0.01% | 8.8 ± 2.3 µM | 205 to 207 °C | 5.4 ± 0.9 µM | less cytotoxic than KS100 | – | –
Br.COc1ccc2c(c1)C(=O)C(=O)N2Cc1ccc(CSC(=N)N)cc1 [Compound 6, 4-((5-Methoxy-2,3-dioxoindolin-1-yl)methyl)benzyl carbamimidothioate hydrobromide] | – | – | – | – | – | – | – | – | 45 ± 2.5 µM | – | > 50 µM | > 50 µM | – | > 50 µM | 214 to 216 °C | > 50 µM | inert | – | –
Br.C=CCNC(=N)SCc1ccc(CN2C(=O)C(=O)c3cc(C(F)(F)F)ccc32)cc1 [Compound 7, 4-((2,3-Dioxo-5-(trifluoromethyl)indolin-1-yl)methyl)benzyl allylcarbamimidothioate hydrobromide] | – | – | – | – | – | – | – | – | 9.1 ± 1.3 µM | – | 9.7 ± 1.1 µM | 8.1 ± 0.8 µM | – | 12 ± 3.1 µM | 122 to 124 °C | 10.3 ± 2.4 µM | less cytotoxic than KS100 | – | –
COC(=O)/C=C/c1ccc(Cn2ncc3cc(C(F)(F)F)ccc32)cc1 [Compound 8, Methyl (E)-3-(4-((5-(trifluoromethyl)-1H-indazol-1-yl)methyl)phenyl)acrylate] | – | – | – | – | – | – | – | – | > 50 µM | – | > 50 µM | > 50 µM | – | > 50 µM | – | > 50 µM | – | > 50 µM | –
COC(=O)/C=C/c1ccc(Cn2cc3cc(C(F)(F)F)ccc3n2)cc1 [Compound 9, Methyl (E)-3-(4-((5-(trifluoromethyl)-2H-indazol-2-yl)methyl)phenyl)acrylate] | – | – | – | – | – | – | – | – | > 50 µM | – | > 50 µM | > 50 µM | – | > 50 µM | – | > 50 µM | – | > 50 µM | –
Br.C=CCNC(=N)SCc1ccc(Cn2ncc3cc(C(F)(F)F)ccc32)cc1 [Compound 10, 4-((5-(Trifluoromethyl)-1H-indazol-1-yl)methyl)benzyl allylcarbamimidothioate hydrobromide] | – | – | – | – | – | – | – | – | > 50 µM | – | > 50 µM | > 50 µM | – | > 50 µM | 104 to 106 °C | 48.4 ± 3.2 µM | – | – | > 50 µM
Br.C=CCNC(=N)SCc1ccc(Cn2cc3cc(C(F)(F)F)ccc3n2)cc1 [Compound 11, 4-((5-(Trifluoromethyl)-2H-indazol-2-yl)methyl)benzyl allylcarbamimidothioate hydrobromide] | – | – | – | – | – | – | – | – | > 50 µM | – | > 50 µM | > 50 µM | – | > 50 µM | 105 to 107 °C | > 50 µM | – | – | > 50 µM
Br.N=C(N)SCc1ccc(Cn2cc3cc(C(F)(F)F)ccc3n2)cc1 [Compound 13, 4-((5-(Trifluoromethyl)-2H-indazol-2-yl)methyl)benzyl carbamimidothioate hydrobromide] | – | – | – | – | – | – | – | – | 22.7 ± 2.3 µM | – | 18.9 ± 5.1 µM | 14.4 ± 2.3 µM | – | 18.2 ± 3.1 µM | 181 to 183 °C | 33.2 ± 4.4 µM | – | – | 4.7 to 33 µM
Br.N=C(N)SCc1ccc(Cn2ncc3cccc(C(F)(F)F)c32)cc1 [Compound 14, 4-((7-(Trifluoromethyl)-1H-indazol-1-yl)methyl)benzyl carbamimidothioate hydrobromide] | – | – | – | – | – | – | – | – | 16.8 ± 3.5 µM | – | 17.7 ± 3.7 µM | 29.3 ± 4.9 µM | – | 14.2 ± 2.3 µM | 206 to 208 °C | 12.3 ± 2.7 µM | – | – | –
Br.N=C(N)SCc1ccc(Cn2cc3cccc(C(F)(F)F)c3n2)cc1 [Compound 15, 4-((7-(Trifluoromethyl)-2H-indazol-2-yl)methyl)benzyl carbamimidothioate hydrobromide] | – | – | – | – | – | – | – | – | > 50 µM | – | > 50 µM | > 50 µM | – | > 50 µM | 195 to 197 °C | > 50 µM | – | – | > 50 µM
Br.COc1ccc2c(c1)c(Br)nn2Cc1ccc(CSC(=N)N)cc1 [Compound 18, 4-((3-Bromo-5-methoxy-1H-indazol-1-yl)methyl)benzyl carbamimidothioate hydrobromide] | – | – | – | – | – | – | – | – | 42.2 ± 5.8 µM | – | > 50 µM | > 50 µM | – | 39.2 ± 3.9 µM | 171 to 173 °C | 44.6 ± 3.7 µM | – | – | > 50 µM
OCc1ccc(Cn2nc(Br)c3cc(C(F)(F)F)ccc32)cc1 [Compound 19, (4-((3-Bromo-5-(trifluoromethyl)-1H-indazol-1-yl)methyl)phenyl)methanol] | – | – | – | – | – | – | – | – | > 50 µM | – | > 50 µM | > 50 µM | – | > 50 µM | – | > 50 µM | – | > 50 µM | –
O=Cc1ccc(Cn2nc(Br)c3cc(C(F)(F)F)ccc32)cc1 [Compound 20, 4-((3-Bromo-5-(trifluoromethyl)-1H-indazol-1-yl)methyl)benzaldehyde] | – | – | – | – | – | – | – | – | > 50 µM | – | > 50 µM | > 50 µM | – | > 50 µM | – | > 50 µM | – | > 50 µM | –
CN(C)CCC(=O)c1ccc(Cn2nc(Br)c3cc(C(F)(F)F)ccc32)cc1.Cl [Compound 21, 1-(4-((3-Bromo-5-(trifluoromethyl)-1H-indazol-1-yl)methyl)phenyl)-3-(dimethylamino)propan-1-one hydrochloride] | – | – | – | – | – | – | – | – | > 50 µM | – | > 50 µM | > 50 µM | – | > 50 µM | 171 to 173 °C | > 50 µM | – | – | > 50 µM
